Measured values taken from patent US10336822B2, “Early marker of proteinuria in patients treated with an anti-VEGF treatment” (Mayo Foundation for Medical Education and Research, priority 2009, dated 2019).
Values joined by “and” are separate entries in the source; they are usually repeats but may differ in a detail not shown here. Identical values can stand only once.

Tests used:
[1] = Proteinuria in patients on anti-VEGF therapy; type: in vivo, human
Procedure: The following was performed to determine whether podocyturia is present in patients who, while undergoing anti-VEGF therapy, develop proteinuria (Table 1). In addition, urinary podocyte excretion was compared among patients on anti-VEGF therapy with proteinuria ranging from 101 to 9720 mg/d (Table 1).

[2] = test system: urinary podocytes; assay: Podocyturia assay: urinary cells stained for podocin immunoreactivity; type: in vivo, human; conditions: for Cells/HPF (urinary podocytes): 400 × high power field, individual cancer patients on anti-VEGF therapy, Table 1
Procedure: A random urine sample (25-50 mL each) was centrifuged for 8 minutes at 700 g at room temperature. The pellets were rinsed twice with […]. Next, the pellets were resuspended in Dulbecco's modified eagle's medium (DMEM) F-12 medium with 10% fetal bovine serum that was supplemented with antibiotics for the prevention of bacterial contamination. A one-milliliter aliquot was plated on a collagen-coated tissue culture slide, which was followed by overnight incubation at 37° C. in 5% CO2. The next day, the media were removed, followed by two phosphate-buffered saline solution washes. The slide was fixed with 1 mL of ice cold methanol for 10 minutes at −20° C. The slide was incubated with antibodies to podocin (dilution, 1:200). After being washed with phosphate-buffered saline solution, a secondary fluorescein isothiocyanate-labeled antibody was added at a dilution of 1:40 for 30 minutes. The sediment was counterstained with Hoechst nuclear stain to facilitate differentiation of whole cells from cell fragments. Coverslips were mounted with Vectashield (Vector Labs, Burlington, Calif.), and the slides were viewed with a fluorescence microscope (Leica, Germany). Nucleated, positive-staining cells were considered to be podocytes. A renal pathologist, who was blinded to the clinical diagnosis and laboratory findings, evaluated each sample to determine the number of cells that were present and the percentage of cells that were stained for podocin.

[3] = Renal function (creatinine, GFR) in patients on anti-VEGF therapy; conditions: for GFR: individual cancer patients on anti-VEGF therapy, Table 1
[4] = test system: renal cell carcinoma, clear cell type; assay: Clinical course of a renal cell carcinoma patient on sunitinib therapy; type: in vivo, human; conditions: person, four months into therapy
Description: They subsequently underwent a right radical nephrectomy and retroperitoneal lymphadenectomy.

| Proteinuria ([1]; human, in vivo) | predicted 24 hour protein ([1]; human, in vivo) | protein in 24 hours ([1]; human, in vivo) | kidney function, as per creatinine measurements ([3]; after the regimen was changed and the dose was decreased) | creatinine ([3]; person, after seven months of therapy) | peak creatinine ([3]; person, four months into therapy) | Compound | Proteinuria ([1]; individual cancer patients on anti-VEGF therapy, Table 1) | Cells/HPF (urinary podocytes) [2] | GFR [3] | Proteinuria (dipstick) ([1]; human, in vivo) | presence of urinary podocytes ([2]; person, after seven months of therapy, FIG. 1) | Additional side effects [4] |
| --- | --- | --- | --- | --- | --- | --- | --- | --- | --- | --- | --- | --- |
| – | – | – | – | – | – | CNC(=O)c1cc(Oc2ccc(NC(=O)Nc3ccc(Cl)c(C(F)(F)F)c3)cc2)ccn1 [S/nib, sorafenib] | 9720 mg/day and 101 mg/day | >9 Cells/HPF and 1 Cells/HPF | 70 and 39 | – | – | – |
| – | – | – | – | – | – | bevacizumab | – | – | – | 1 + dipstick | – | – |
| 2112 mg/day | 931 mg | 467 mg | improved | 1.3 | 1.5 | CCN(CC)CCNC(=O)c1c(C)[nH]c(/C=C2\C(=O)Nc3ccc(F)cc32)c1C [Sunitinib] | – | >3 Cells/HPF | 43 | – | presence of urinary podocytes was confirmed | hypertension, hand and foot syndrome, and drug-induced hypothyroidism |
